This is an account of results in US7842806B2, “Pyridopyrimidone derivatives, preparation thereof, therapeutic use thereof” (sanofi-aventis, priority 2006, dated 2010).

The test system of one assay is K562 cells. Put plainly: MTS cell proliferation and viability test, K562 leukemia line. The assay is classed as cell-based, human. To be noted: incubating for 72 hours, read-out: IC50 (concentration which results in a 50% loss of cell proliferation and viability). The procedure:
[…]
(§1) The cell proliferation and viability were determined in a test using 3-(4,5-dimethylthiazol-2-yl)-5-(3-carboxymethoxyphenyl)-2-(4-sulfophenyl)-2H-tetrazolium (MTS) according to Fujishita T. et al., Oncology, 2003, 64 (4), 399-406. In this test, the mitochondrial ability of the living cells to convert MTS to a colored compound is measured after incubating for 72 hours a compound of formula (I) according to the invention. […]

The next assay has as its system MDA-MB231 cells. The assay is described as follows: MTS cell proliferation and viability test, MDA-MB231 breast cancer line. The assay is classed as cell-based, human. To be noted: incubating for 72 hours, read-out: IC50 (concentration which results in a 50% loss of cell proliferation and viability). The procedure:
[…]
as §1

Structures are written as SMILES. Read-outs that look alike come from different tables or passages of the source.

For `CNC(=O)C1COc2ccc(Nc3ncc4cc(-c5c(Cl)cccc5Cl)c(=O)n(C)c4n3)cc2O1` (racemic) [Example 8, (R/S)-N-methylamide of 7-[6-(2,6-dichlorophenyl)-8-methyl-7-oxo-7,8-dihydropyrido[2,3-d]pyrimidin-2-ylamino]-2,3-dihydrobenzo[1,4]dioxin-2-carboxylic acid], the IC50 with K562 cells was 20.5 nM; in the assay on MDA-MB231 cells it was 183 nM.
In the case of `Cn1c(=O)c(-c2c(Cl)cccc2Cl)cc2cnc(Nc3ccc4c(c3)OC(CN)O4)nc21` (racemic) [Example 1, (R/S)-2-[[2-(aminomethyl)-1,3-benzodioxol-5-yl]amino]-6-(2,6-dichlorophenyl)-8-methyl-8H-pyrido[2,3-d]pyrimidin-7-one], in the assay on K562 cells (Homo sapiens), the IC50 amounted to 3 nM.
For the compound `Cn1c(=O)c(-c2c(Cl)cccc2Cl)cc2cnc(Nc3ccc4c(c3)COC4)nc21` [Example 2, 6-(2,6-dichlorophenyl)-2-[(1,3-dihydro-5-iso-benzofuranyl)amino]-8-methyl-8H-pyrido[2,3-d]pyrimidin-7-one], the IC50 with MDA-MB231 cells was 10 nM.
